# Key:
# mice = conditions: literature (Elovitz et al., 2006); cited from earlier work
# human TLR2 = biological target: T1, human TLR2 (Homo sapiens, UniProt O60603+Q15399); test: IL-8 expression from HEK293/hTLR2 cells by ELISA; assay type: cell-based; conditions: 24-h incubation, varying concentrations
# T1 construct: host or cells: HEK293
# Protocol: (§1) HEK293 or HEK293/hTLR2 and HEK293/hTLR4/MD2/CD14, were seeded into 96-well plates at a density of 50,000 cells/well and allowed to grow overnight. The cells were then incubated with and N-palmitoyl(S)-[2,3-bis(palmitoyloxy)-(2, RS)-propyl]-Cys-Scr-Lys4 (Pam3CSK4), ultrapure Escherichia coli LPS, or fresh cultures of F. nucleatum 12230 at the indicated doses followed by a 24-h incubation. The supernatant was harvested and centrifuged and the amount of IL-8 secreted was determined by ELISA.
# (§2) Immunlon flat-bottom 96-well microliter plates (Thermo Electron, Mass) were coated with goat anti-human IL-8 Ab (4 μg/ml; R&D System) in 100 μl of coating buffer (0.05 M carbonate buffer (pH 9.6)). After overnight incubation at 4° C., the plates were washed six times with washing buffer, i.e., 0.05% Tween 20 in PBS (Sigma-Aldrich), followed by an overnight incubation in blocking buffer (1% BSA in PBS) at 4° C. The plates were washed four times before an aliquot of 100 μl of diluted mammalian cell culture supernatant or human IL-8 (R&D Systems, Minn) were added to each well and incubated overnight at 4° C. The plates were washed, followed by 3-h incubation with polyclonal rabbit anti-human 11,-8 Ab (1/1000; Endogen) at room temperature. […] The light absorbance was measured at 450 nm on a Bio-Rad Model 680 microplate reader. […]
# human TLR4/MD2/CD14 = biological target: T2, human TLR4/MD2/CD14 (Homo sapiens, UniProt O00206+Q9Y6Y9); test: IL-8 expression from HEK293/hTLR4/MD2/CD14 cells by ELISA; assay type: cell-based; conditions: 24-h incubation, varying concentrations
# T2 construct: host or cells: HEK293
# T2 sequence (O00206 24-839): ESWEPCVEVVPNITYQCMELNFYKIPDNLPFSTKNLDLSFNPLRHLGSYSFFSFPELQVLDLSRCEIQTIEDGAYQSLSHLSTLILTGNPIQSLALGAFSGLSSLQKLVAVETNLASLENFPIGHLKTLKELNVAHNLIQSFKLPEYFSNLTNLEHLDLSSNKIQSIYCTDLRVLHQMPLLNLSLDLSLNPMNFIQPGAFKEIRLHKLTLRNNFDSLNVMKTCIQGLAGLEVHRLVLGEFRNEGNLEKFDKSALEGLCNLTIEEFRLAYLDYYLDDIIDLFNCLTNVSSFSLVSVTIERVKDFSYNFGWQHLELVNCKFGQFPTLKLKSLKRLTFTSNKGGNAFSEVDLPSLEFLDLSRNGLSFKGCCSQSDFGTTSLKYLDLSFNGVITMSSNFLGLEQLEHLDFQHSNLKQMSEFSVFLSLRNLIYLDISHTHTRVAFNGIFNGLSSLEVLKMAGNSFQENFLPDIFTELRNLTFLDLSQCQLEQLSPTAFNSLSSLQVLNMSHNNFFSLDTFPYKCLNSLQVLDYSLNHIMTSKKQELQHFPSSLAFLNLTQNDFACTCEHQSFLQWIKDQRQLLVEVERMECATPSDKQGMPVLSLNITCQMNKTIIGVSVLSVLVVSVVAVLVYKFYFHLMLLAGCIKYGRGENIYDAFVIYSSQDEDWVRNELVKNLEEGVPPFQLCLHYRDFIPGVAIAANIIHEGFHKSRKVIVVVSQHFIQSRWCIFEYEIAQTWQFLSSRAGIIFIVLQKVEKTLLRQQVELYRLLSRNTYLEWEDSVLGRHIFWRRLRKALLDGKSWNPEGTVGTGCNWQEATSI
# T2 sequence (Q9Y6Y9 19-160): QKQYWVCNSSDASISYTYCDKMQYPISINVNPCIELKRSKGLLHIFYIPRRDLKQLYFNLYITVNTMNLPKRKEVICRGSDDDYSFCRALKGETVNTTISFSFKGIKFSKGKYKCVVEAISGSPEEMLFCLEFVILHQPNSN
# Protocol: as §1, §2
# T1 sequence (O60603 21-784): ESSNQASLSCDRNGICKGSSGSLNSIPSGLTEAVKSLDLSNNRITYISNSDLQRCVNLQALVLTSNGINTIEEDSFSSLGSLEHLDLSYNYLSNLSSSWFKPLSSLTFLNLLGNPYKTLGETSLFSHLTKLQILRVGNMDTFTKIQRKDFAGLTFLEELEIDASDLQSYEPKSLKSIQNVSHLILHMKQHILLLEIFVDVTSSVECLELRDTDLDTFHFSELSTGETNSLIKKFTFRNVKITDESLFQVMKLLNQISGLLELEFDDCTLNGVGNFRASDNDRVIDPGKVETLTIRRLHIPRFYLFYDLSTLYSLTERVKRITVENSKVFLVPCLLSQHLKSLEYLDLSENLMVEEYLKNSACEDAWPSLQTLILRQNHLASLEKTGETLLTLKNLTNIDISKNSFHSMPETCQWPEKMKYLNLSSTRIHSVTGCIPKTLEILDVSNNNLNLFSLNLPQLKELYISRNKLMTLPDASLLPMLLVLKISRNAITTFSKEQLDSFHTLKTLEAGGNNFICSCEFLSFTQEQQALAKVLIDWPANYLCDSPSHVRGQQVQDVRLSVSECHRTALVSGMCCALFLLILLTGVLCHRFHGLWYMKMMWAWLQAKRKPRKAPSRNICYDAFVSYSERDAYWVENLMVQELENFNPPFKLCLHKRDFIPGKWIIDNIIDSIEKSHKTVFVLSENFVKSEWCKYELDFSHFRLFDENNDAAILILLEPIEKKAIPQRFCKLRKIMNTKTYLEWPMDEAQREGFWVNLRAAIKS
# T1 sequence (Q15399 25-786): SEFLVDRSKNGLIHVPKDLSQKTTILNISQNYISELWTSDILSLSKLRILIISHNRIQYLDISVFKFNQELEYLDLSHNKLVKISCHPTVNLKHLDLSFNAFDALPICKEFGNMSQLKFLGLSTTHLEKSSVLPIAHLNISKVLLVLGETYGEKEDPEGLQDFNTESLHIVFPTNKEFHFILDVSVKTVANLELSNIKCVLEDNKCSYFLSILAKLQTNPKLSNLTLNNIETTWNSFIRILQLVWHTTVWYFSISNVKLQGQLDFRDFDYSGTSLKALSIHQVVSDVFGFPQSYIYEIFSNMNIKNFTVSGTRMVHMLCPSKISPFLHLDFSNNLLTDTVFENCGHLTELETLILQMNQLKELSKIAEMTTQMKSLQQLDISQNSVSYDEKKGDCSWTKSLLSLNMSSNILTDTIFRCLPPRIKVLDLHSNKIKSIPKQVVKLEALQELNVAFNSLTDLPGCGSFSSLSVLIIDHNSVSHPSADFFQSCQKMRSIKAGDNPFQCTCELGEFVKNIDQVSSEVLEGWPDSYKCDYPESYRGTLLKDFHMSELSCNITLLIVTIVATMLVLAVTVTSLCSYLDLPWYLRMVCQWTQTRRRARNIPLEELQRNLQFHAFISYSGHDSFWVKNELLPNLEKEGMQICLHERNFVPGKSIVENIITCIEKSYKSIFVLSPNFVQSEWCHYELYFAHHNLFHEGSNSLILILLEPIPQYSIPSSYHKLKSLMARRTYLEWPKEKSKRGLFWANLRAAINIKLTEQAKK
activation of TLR4 (IL-8 expression) (human TLR4/MD2/CD14),Molecule,maternal morbidity in mice (mice),activation of TLR2 (IL-8 expression) (human TLR2)
–,CCCCCC(=O)O[C@]1(C(C)=O)CC[C@H]2[C@@H]3CCC4=CC(=O)CC[C@]4(C)[C@H]3CC[C@@]21C [17-α hydroxyprogesterone caproate],significant maternal morbidity,–
not vice versa,"N-palmitoyl(S)-[2,3-bis(palmitoyloxy)-(2, RS)-propyl]-Cys-Scr-Lys4 [Pam3CSK4]",–,only activated their respective receptors
